Where two headings read alike, the source gives them in different places.
How the values were obtained:
Assay type in all cases: cell-based
[1] = test system: phosphorylation of AKT (pAKT) in T47D cells expressing mutant PI3Ka (H1047R); experiment: In vitro cell pAKT (Ser473) HTRF, T47D cells; settings: inhibition of pAKT, 6 hour, read-out: Avg T-47D IC50
Protocol: (§1) In Vitro Cell pAKT: Determination of IC50 Values for Inhibition of Phosphorylation of AKT (pAKT) in T47D Cells Expressing Mutant PI3Ka (H1047R) Mutation and SKBR3 Cells Express WT PI3Ka.
(§2) T47D or SKBR3 cells were trypsinized, resuspended in culture media and seeded onto assay ready plates. T47D culture media consisted of RPMI, 10% FBS and Insulin (0.2 units/mL). SKBR3 culture media consisted of McCoy's 5a and 10% FBS. Cells were seeded at a density of 5000 cells/well and dispensed in 12.5 uL onto 384 well assay ready plates (Perkin Elmer, 6008238)). Assay ready plates had previously been stamped with 10-point dilutions of compounds of interest, as well as controls. The Echo655 is used to stamp plates at 12.5 nL of compound or DMSO. Cells were grown for 6 hour at 37° Celsius and 5% CO2. After 6 hour, 4 uL of Lysis buffer reagent was added to the plate, which was then centrifuged for 1 minute at 1000 rpm. Then the plate was incubated at room temperature for 30 minutes. After 30 minutes, 4 uL of antibody mix containing Eu Cryptate, d2 Cryptate, and detection buffer, was added to the plate. The plate was centrifuged for 1 minute at 1000 rpm and then incubated overnight at room temperature. The plate was read on an Envision plate reader using the HTRF protocol. The percentage of inhibition of AKT phosphorylation was calculated using the following formula: % Inhibition=100×(pAKTHC−pAKTSample)/(pAKTHC−pAKTLC)), where pAKTHC is obtained from cells treated with 0.1% DMSO only; pAKTLC is obtained from cells treated with 10 uM Alpelisib. The IC50 (concentration achieving 50% inhibition of pAKT) is calculated by fitting the Curve using XWfit (v5.3.1.3), equation 201: Y=Bottom+(Top−Bottom)/(1+10^((Log IC50−X)*HillSlope)).

[2] = test system: SKBR3 cells express WT PI3Ka; experiment: In vitro cell proliferation (CellTiter-Glo, 72 hours), SKBR3 cells; settings: inhibition of proliferation
Protocol: (§3) In Vitro Cell Proliferation: Determination of EC50 Values for Inhibition of Proliferation in T47D Cells Expressing Mutant PI3Ka (H1047R) Mutation and SKBR3 Cells Express WT PI3Ka.
(§4) T47D or SKBR3 cells were trypsinized, resuspended in culture media and seeded onto assay ready plates. T47D culture media consisted of RPMI, 10% FBS and Insulin (0.2 units/mL). SKBR3 culture media consisted of McCoys 5a and 10% FBS. Cells were seeded at a density of 1,500 cells/well and dispensed in 50 uL onto 384 well assay ready plates (Corning, 89089-790). Assay ready plates had previously been stamped with 10-point dilutions of compounds of interest, as well as controls. The Echo655 is used to stamp plates at 40 nL of compound or DMSO. Cells were grown for 72 hours at 37° Celsius and 5% CO2. After 72 hours, cells were equilibrated at room temperature for 15 minutes. 30 uL of CellTiter-Glo reagent is added to the plate, which is then shaken for 30 minutes at temperature at 300-500 rpm. Cells are then read on an Envision plate reader. The percentage of inhibition of proliferation was calculated using the following formula: % Inhibition=100×(LumD−LumSample)/(LumD−LumInh), where D is obtained from cells treated with 0.1% DMSO only; Inh is obtained from cells treated with 10 uM Alpelisib. The effective concentration achieving 50% inhibition of proliferation (EC50) is calculated by fitting the Curve using XWfit (v5.3.1.3), equation 201: Y=Bottom+(Top−Bottom)/(1+10^((Log EC50−X)*HillSlope)).

[3] = test system: T47D cells expressing mutant PI3Ka (H1047R); experiment: In vitro cell proliferation (CellTiter-Glo, 72 hours), T47D cells; settings: inhibition of proliferation, read-out: Avg T-47D EC50
Protocol: as §3, §4

[4] = test system: phosphorylation of AKT (pAKT) in SKBR3 cells express WT PI3Ka; experiment: In vitro cell pAKT (Ser473) HTRF, SKBR3 cells; settings: inhibition of pAKT
Protocol: as §1, §2

IC50 [1] | EC50 [2] | EC50 [3] | IC50 ([4]; 6 hour) | EC50 ([3]; Homo sapiens, T47D, 72 h) | IC50 ([4]; Homo sapiens, SK-BR-3, 6 h) | EC50 ([2]; Homo sapiens, SK-BR-3, 72 h) | Compound
> 15 µM | 2 to 15 µM | > 15 µM | > 15 µM | – | – | – | CC(Nc1ccccc1C(=O)O)c1cc(C(F)(F)F)cc2c(=O)n(C)c(N3CCN(CC(F)(F)F)CC3)nc12 (single isomer, unassigned) [Example 38, 2-((1-(3-methyl-4-oxo-2-(4-(2,2,2-trifluoroethyl)piperazin-1-yl)-6-(trifluoromethyl)-3,4-dihydroquinazolin-8-yl)ethyl)amino)benzoic acid]
> 15 µM | 2 to 15 µM | 2 to 15 µM | > 15 µM | – | – | – | Cc1cc(C(C)Nc2ccc(F)cc2C(=O)O)c2nc(N3CCC(C)(C)CC3)n(C)c(=O)c2c1 (single isomer, unassigned) [Example 30, 2-((1-(2-(4,4-dimethylpiperidin-1-yl)-3,6-dimethyl-4-oxo-3,4-dihydroquinazolin-8-yl)ethyl)amino)-5-fluorobenzoic acid]
> 15 µM | > 15 µM | 2 to 15 µM | > 15 µM | – | – | – | Cc1cc(C(C)Nc2ccccc2C(=O)O)c2nc(N3CCC(C)(C)CC3)n(CF)c(=O)c2c1 (single isomer, unassigned) [Example 52, 2-((1-(2-(4,4-dimethylpiperidin-1-yl)-3-(fluoromethyl)-6-methyl-4-oxo-3,4-dihydroquinazolin-8-yl)ethyl)amino)benzoic acid]
> 15 µM | 2 to 15 µM | 2 to 15 µM | > 15 µM | – | – | – | CC(Nc1ccccc1C(=O)O)c1cc(Cl)cc2c(=O)n(C)c(N3CCC(C)(C)CC3)nc12 (single isomer, unassigned) [Example 23, 2-((1-(6-chloro-2-(4,4-dimethylpiperidin-1-yl)-3-methyl-4-oxo-3,4-dihydroquinazolin-8-yl)ethyl)amino)benzoic acid]
5 to 15 µM | 2 to 15 µM | – | – | 2 to 15 µM | > 15 µM | – | Cc1cc(C(C)Nc2ccccc2C(=O)O)c2nc(N3CCC(C)(C)CC3)n(CF)c(=O)c2c1 (single isomer, unassigned) [Example 51, 2-((1-(2-(4,4-dimethylpiperidin-1-yl)-3-(fluoromethyl)-6-methyl-4-oxo-3,4-dihydroquinazolin-8-yl)ethyl)amino)benzoic acid]
0.001 to 1 µM | 2 to 15 µM | 0.5 to 2 µM | > 15 µM | – | – | – | Cc1cc(C(C)Nc2ccccc2C(=O)O)c2nc(NC[C@H](C)c3ccccc3)n(C)c(=O)c2c1 (single isomer, unassigned) [Example 46]
> 15 µM | > 15 µM | 2 to 15 µM | – | – | > 15 µM | – | Cc1cc(C(C)Nc2ccc(Cl)cc2C(=O)O)c2nc(N3Cc4ccc(F)cc4C3)n(C)c(=O)c2c1 (single isomer, unassigned) [Example 13, 5-chloro-2-((1-(2-(5-fluoroisoindolin-2-yl)-3,6-dimethyl-4-oxo-3,4-dihydroquinazolin-8-yl)ethyl)amino)benzoic acid]
> 15 µM | > 15 µM | > 15 µM | > 15 µM | – | – | – | Cc1cc(C(C)Nc2ccccc2C(=O)O)c2nc(N3Cc4ccc(C#N)cc4C3)n(C)c(=O)c2c1 (single isomer, unassigned) [Example 18, 2-((1-(2-(5-cyanoisoindolin-2-yl)-3,6-dimethyl-4-oxo-3,4-dihydroquinazolin-8-yl)ethyl)amino)benzoic acid]
0.001 to 1 µM | – | 0.5 to 2 µM | – | – | > 15 µM | 2 to 15 µM | CC(Nc1ccccc1C(=O)O)c1cc(C(F)(F)F)cc2c(=O)n(C)c(N3CCN(CC(F)(F)F)CC3)nc12 (single isomer, unassigned) [Example 37, 2-((1-(3-methyl-4-oxo-2-(4-(2,2,2-trifluoroethyl)piperazin-1-yl)-6-(trifluoromethyl)-3,4-dihydroquinazolin-8-yl)ethyl)amino)benzoic acid]
> 15 µM | > 15 µM | 2 to 15 µM | > 15 µM | – | – | – | Cc1cc(C(C)Nc2ccccc2C(=O)O)c2nc(NCc3ccc(Cl)cc3)n(C)c(=O)c2c1 (single isomer, unassigned) [Example 44, 2-((1-(2-((4-chlorobenzyl)amino)-3,6-dimethyl-4-oxo-3,4-dihydroquinazolin-8-yl)ethyl)amino)benzoic acid]
0.001 to 1 µM | – | 0.5 to 2 µM | – | – | > 15 µM | > 15 µM | CC(Nc1ccccc1C(=O)O)c1cc(Cl)cc2c(=O)n(C)c(N3CCN(CC(F)(F)F)CC3)nc12 (single isomer, unassigned) [Example 26, 2-((1-(6-chloro-3-methyl-4-oxo-2-(4-(2,2,2-trifluoroethyl)piperazin-1-yl)-3,4-dihydroquinazolin-8-yl)ethyl)amino)benzoic acid]
> 15 µM | 2 to 15 µM | 2 to 15 µM | > 15 µM | – | – | – | Cc1cc(C(C)Nc2ccccc2C(=O)O)c2nc(N3Cc4ccc(Cl)cc4C3)n(C)c(=O)c2c1 (single isomer, unassigned) [Example 10, 2-((1-(2-(5-chloroisoindolin-2-yl)-3,6-dimethyl-4-oxo-3,4-dihydroquinazolin-8-yl)ethyl)amino)benzoic acid]
1 to 5 µM | – | 0.5 to 2 µM | – | – | > 15 µM | > 15 µM | Cc1cc(C(C)Nc2ccccc2C(=O)O)c2nc(N3CCCC(C)(C)C3)n(C)c(=O)c2c1 (single isomer, unassigned) [Example 3, 2-((1-(2-(3,3-dimethylpiperidin-1-yl)-3,6-dimethyl-4-oxo-3,4-dihydroquinazolin-8-yl)ethyl)amino)benzoic acid]
> 15 µM | > 15 µM | 2 to 15 µM | > 15 µM | – | – | – | Cc1cc(C(C)Nc2ccccc2C(=O)O)c2nc(Nc3ccc(Cl)cc3)n(C)c(=O)c2c1 (single isomer, unassigned) [Example 42, 2-((1-(2-((4-chlorophenyl)amino)-3,6-dimethyl-4-oxo-3,4-dihydroquinazolin-8-yl)ethyl)amino)benzoic acid]
5 to 15 µM | > 15 µM | 0.5 to 2 µM | – | – | > 15 µM | – | Cc1cc(C(C)Nc2ccccc2C(=O)O)c2nc(NC[C@@H](C)c3ccccc3)n(C)c(=O)c2c1 (single isomer, unassigned) [Example 47]

Compound | IC50 [1] | EC50 [2] | EC50 [3] | IC50 ([4]; 6 hour) | EC50 ([3]; Homo sapiens, T47D, 72 h) | IC50 ([4]; Homo sapiens, SK-BR-3, 6 h) | EC50 ([2]; Homo sapiens, SK-BR-3, 72 h)
Cc1cc(C(C)Nc2ccccc2C(=O)O)c2nc(OCC(C)C)n(C)c(=O)c2c1 (single isomer, unassigned) [Example 12, 2-((1-(2-isobutoxy-3,6-dimethyl-4-oxo-3,4-dihydroquinazolin-8-yl)ethyl)amino)benzoic acid] | > 15 µM | > 15 µM | 2 to 15 µM | > 15 µM | – | – | –
Cc1cc(C(C)Nc2ccccc2C(=O)O)c2nc(OCC(C)C)n(C)c(=O)c2c1 (single isomer, unassigned) [Example 11, 2-((1-(2-isobutoxy-3,6-dimethyl-4-oxo-3,4-dihydroquinazolin-8-yl)ethyl)amino)benzoic acid] | 1 to 5 µM | – | 0.5 to 2 µM | – | – | > 15 µM | > 15 µM
